Reference: ChEMBL document CHEMBL4507319 (2021)

Legend:
[1] = target: Mitogen-activated protein kinase kinase kinase 12 (Homo sapiens) (UniProt Q12852); settings: Compound concentration 1000.0 nM
[2] = test system: Epidermal growth factor receptor (Homo sapiens), P00533 [G719C]; settings: Compound concentration 1000.0 nM
[3] = target: Mitogen-activated protein kinase 15 (Homo sapiens) (UniProt Q8TD08); settings: Compound concentration 1000.0 nM
[4] = target: Tyrosine-protein kinase HCK (Homo sapiens) (UniProt P08631); settings: Compound concentration 1000.0 nM
[5] = target: Myosin light chain kinase, smooth muscle (Homo sapiens) (UniProt Q15746); settings: Compound concentration 1000.0 nM
[6] = target: T1, Serine/threonine-protein kinase Nek11 (Homo sapiens) (UniProt Q8NG66); settings: Compound concentration 1000.0 nM
T1 sequence (whole entry): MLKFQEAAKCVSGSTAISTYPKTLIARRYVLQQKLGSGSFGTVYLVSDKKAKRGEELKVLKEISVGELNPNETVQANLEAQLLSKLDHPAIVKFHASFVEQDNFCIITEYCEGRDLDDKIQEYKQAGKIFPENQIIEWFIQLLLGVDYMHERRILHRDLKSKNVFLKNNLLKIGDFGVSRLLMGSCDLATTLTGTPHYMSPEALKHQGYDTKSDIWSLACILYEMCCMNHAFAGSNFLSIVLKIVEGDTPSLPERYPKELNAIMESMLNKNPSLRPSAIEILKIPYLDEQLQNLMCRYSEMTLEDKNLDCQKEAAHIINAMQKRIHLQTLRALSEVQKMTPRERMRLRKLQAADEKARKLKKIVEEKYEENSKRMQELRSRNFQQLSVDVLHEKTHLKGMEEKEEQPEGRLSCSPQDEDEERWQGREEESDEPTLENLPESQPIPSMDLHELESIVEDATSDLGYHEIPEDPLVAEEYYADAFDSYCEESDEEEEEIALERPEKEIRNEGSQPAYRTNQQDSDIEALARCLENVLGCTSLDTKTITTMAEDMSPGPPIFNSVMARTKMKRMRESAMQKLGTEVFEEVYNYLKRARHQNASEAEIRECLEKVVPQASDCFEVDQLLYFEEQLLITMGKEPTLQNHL

[7] = target: Phosphatidylinositol 4,5-bisphosphate 3-kinase catalytic subunit gamma isoform (Homo sapiens) (UniProt P48736); settings: Compound concentration 1000.0 nM
[8] = target: Phosphatidylinositol 4-phosphate 5-kinase type-1 alpha (Homo sapiens) (UniProt Q99755); settings: Compound concentration 1000.0 nM
[9] = target: T2, cGMP-dependent protein kinase 2 (Homo sapiens) (UniProt Q13237); settings: Compound concentration 1000.0 nM
T2 sequence (whole entry): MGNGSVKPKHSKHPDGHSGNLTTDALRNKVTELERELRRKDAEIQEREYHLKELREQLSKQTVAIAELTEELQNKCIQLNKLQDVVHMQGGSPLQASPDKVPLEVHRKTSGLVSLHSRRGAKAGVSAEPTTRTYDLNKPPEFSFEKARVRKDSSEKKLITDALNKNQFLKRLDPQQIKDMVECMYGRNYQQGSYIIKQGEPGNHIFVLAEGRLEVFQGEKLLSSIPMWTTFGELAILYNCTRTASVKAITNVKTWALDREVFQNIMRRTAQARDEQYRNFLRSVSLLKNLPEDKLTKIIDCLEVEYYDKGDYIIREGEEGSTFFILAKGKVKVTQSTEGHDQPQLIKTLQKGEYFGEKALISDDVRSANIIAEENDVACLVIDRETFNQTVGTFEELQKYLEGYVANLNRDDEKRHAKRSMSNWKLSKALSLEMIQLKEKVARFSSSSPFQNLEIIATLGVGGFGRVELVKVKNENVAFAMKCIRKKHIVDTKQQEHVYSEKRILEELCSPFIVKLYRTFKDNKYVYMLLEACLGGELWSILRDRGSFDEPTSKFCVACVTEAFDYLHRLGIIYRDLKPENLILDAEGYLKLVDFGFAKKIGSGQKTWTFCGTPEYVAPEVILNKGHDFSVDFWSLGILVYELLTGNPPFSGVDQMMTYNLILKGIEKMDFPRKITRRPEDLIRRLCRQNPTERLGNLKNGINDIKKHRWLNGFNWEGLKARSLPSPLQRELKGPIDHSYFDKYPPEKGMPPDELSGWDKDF

[10] = target: T3, cAMP-dependent protein kinase catalytic subunit PRKX (Homo sapiens) (UniProt P51817); settings: Compound concentration 1000.0 nM
T3 sequence (whole entry): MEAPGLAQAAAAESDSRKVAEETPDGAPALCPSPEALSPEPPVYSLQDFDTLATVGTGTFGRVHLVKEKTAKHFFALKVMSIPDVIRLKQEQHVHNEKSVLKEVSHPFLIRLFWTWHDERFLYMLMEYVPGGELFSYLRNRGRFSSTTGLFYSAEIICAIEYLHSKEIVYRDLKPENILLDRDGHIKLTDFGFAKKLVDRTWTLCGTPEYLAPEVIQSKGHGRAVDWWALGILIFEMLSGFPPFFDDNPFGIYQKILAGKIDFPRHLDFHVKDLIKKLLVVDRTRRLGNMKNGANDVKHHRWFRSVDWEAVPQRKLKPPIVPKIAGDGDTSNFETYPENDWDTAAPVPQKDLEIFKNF

[11] = target: T4, Serine/threonine-protein kinase Sgk2 (Homo sapiens) (UniProt Q9HBY8); settings: Compound concentration 1000.0 nM
T4 sequence (whole entry): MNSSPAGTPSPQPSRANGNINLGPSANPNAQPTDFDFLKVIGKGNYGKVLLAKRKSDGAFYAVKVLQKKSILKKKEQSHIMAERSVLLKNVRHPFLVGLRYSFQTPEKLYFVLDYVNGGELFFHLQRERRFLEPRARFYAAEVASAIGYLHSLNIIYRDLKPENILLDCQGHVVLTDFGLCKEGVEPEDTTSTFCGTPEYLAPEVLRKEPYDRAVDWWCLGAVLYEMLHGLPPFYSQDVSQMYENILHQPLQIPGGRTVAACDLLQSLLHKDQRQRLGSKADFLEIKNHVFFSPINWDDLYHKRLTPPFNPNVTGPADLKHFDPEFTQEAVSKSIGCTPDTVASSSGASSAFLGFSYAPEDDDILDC

[12] = target: Serine/threonine-protein kinase 32A (Homo sapiens) (UniProt Q8WU08); settings: Compound concentration 1000.0 nM
[13] = target: 5-hydroxytryptamine receptor 2A (Homo sapiens) (UniProt P28223); settings: Compound concentration 10.0 uM
5-hydroxytryptamine receptor 2A (Homo sapiens), sequence (P28223 whole entry): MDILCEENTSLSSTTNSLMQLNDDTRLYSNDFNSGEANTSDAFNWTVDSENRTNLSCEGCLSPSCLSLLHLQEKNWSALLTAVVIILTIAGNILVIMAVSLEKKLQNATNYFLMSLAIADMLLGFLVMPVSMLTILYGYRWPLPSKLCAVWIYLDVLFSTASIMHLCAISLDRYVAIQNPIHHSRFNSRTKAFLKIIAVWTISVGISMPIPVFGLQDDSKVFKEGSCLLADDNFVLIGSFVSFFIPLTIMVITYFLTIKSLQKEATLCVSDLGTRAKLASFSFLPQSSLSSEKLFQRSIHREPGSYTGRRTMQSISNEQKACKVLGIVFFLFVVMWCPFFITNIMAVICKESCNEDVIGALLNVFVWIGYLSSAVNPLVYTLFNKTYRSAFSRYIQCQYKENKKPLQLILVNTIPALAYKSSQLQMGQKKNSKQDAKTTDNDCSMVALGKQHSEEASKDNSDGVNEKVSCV

Serine/threonine-protein kinase 32A (Homo sapiens), sequence (Q8WU08 whole entry): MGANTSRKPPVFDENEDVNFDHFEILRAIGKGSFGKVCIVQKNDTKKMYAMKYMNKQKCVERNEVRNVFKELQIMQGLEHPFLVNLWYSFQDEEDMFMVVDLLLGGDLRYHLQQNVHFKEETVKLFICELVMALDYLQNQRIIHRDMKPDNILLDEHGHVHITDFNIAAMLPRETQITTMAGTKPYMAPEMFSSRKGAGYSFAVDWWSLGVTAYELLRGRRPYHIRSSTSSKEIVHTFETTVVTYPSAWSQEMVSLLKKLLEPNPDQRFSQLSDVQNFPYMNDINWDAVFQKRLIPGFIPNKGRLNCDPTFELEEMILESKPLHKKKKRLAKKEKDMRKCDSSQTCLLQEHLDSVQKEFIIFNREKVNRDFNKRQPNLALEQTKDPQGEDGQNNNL
Tyrosine-protein kinase HCK (Homo sapiens), sequence (P08631 2-526 limits assumed): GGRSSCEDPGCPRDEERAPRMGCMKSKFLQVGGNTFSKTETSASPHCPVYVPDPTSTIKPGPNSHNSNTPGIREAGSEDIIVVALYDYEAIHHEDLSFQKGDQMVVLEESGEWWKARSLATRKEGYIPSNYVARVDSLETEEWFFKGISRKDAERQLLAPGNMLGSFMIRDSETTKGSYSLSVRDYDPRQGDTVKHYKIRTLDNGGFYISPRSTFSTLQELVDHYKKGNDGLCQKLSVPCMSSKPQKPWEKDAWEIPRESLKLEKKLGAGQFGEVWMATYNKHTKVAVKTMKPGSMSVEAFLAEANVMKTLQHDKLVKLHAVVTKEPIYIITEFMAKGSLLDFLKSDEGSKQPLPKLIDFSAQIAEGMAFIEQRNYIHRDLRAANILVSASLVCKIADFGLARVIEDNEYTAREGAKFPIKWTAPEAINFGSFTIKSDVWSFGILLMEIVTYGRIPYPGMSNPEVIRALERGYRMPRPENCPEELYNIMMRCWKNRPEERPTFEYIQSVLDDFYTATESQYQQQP
Phosphatidylinositol 4,5-bisphosphate 3-kinase catalytic subunit gamma isoform (Homo sapiens), sequence (P48736 whole entry, looked up, canonical isoform): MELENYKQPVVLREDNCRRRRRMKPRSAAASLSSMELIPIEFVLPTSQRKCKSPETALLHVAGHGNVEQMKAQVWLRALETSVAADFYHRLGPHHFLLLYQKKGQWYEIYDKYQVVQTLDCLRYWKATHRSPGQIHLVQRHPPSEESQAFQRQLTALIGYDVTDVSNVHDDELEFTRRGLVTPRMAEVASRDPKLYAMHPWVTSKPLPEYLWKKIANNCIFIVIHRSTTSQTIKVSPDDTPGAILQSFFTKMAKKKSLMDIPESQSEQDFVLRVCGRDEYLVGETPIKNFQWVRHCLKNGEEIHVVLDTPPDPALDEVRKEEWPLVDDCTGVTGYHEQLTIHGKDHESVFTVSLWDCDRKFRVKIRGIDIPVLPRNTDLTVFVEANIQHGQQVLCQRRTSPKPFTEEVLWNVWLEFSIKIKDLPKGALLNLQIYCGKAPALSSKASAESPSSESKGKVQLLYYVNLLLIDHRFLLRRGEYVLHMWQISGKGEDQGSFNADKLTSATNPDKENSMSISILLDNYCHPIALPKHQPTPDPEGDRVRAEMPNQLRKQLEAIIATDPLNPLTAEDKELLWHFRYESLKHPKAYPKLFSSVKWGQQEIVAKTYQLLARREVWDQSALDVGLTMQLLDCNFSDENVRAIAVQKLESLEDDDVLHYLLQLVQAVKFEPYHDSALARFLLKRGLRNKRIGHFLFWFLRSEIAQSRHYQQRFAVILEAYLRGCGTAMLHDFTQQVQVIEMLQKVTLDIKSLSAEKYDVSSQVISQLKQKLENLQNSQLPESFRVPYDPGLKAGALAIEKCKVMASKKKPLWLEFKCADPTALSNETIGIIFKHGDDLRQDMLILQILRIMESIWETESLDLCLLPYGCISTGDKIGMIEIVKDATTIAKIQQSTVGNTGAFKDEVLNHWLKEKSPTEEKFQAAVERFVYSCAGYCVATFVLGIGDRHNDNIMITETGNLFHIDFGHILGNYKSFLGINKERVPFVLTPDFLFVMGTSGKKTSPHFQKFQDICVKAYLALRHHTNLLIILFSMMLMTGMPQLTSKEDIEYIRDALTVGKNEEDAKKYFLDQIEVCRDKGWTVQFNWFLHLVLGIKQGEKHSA
Mitogen-activated protein kinase kinase kinase 12 (Homo sapiens), sequence (Q12852 whole entry): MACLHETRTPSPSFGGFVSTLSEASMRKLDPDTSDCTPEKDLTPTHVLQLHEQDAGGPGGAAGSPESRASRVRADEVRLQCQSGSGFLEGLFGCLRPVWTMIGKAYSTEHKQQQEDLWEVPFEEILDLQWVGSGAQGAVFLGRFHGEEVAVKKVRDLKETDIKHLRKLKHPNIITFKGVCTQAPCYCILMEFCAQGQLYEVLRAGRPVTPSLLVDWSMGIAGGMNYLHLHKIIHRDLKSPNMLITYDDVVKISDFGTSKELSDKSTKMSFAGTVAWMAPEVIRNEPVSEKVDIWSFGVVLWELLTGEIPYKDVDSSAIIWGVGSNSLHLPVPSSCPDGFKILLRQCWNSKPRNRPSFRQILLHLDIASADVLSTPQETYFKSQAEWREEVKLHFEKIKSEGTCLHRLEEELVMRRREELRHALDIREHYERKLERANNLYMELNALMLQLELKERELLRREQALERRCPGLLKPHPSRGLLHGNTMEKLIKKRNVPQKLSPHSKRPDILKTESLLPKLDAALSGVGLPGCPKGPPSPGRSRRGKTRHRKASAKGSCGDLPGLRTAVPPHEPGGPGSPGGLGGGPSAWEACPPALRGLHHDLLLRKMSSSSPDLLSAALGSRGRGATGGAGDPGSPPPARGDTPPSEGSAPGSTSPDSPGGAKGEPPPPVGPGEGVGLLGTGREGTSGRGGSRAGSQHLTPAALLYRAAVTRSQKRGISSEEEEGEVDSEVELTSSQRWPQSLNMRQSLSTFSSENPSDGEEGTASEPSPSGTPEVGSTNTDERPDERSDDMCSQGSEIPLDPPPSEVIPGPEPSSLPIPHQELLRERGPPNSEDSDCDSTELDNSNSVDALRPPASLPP
Mitogen-activated protein kinase 15 (Homo sapiens), sequence (Q8TD08 whole entry): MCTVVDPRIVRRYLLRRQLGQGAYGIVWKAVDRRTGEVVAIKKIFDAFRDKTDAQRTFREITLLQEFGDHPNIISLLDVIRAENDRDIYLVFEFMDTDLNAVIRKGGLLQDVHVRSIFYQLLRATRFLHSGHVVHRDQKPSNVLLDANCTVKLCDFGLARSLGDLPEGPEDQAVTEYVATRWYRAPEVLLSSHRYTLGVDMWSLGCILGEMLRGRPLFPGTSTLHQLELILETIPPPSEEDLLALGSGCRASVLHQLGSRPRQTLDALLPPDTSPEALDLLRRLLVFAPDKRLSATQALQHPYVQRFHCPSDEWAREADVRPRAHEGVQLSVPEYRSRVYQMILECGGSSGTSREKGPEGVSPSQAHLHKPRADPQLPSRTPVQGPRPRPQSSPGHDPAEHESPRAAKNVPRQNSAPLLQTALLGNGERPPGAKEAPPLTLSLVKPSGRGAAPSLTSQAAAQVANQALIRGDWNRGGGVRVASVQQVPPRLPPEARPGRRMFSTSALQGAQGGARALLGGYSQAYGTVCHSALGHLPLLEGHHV
Phosphatidylinositol 4-phosphate 5-kinase type-1 alpha (Homo sapiens), sequence (Q99755 whole entry): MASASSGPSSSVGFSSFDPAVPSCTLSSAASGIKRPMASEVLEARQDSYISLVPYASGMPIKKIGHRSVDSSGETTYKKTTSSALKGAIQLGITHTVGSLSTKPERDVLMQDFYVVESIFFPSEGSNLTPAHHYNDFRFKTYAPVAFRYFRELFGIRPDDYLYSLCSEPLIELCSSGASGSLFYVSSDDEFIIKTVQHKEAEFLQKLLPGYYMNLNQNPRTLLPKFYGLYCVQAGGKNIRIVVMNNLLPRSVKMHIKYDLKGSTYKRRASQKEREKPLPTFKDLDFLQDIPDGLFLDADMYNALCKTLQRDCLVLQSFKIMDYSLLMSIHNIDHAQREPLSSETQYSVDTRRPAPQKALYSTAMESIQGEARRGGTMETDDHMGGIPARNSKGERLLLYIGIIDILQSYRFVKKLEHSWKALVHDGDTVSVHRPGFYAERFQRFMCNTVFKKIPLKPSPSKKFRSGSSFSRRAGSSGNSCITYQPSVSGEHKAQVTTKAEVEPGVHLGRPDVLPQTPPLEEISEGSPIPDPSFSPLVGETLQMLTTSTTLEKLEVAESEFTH

CCc1ccccc1C(=O)Nc1n[nH]c2c(C)c(F)c(C3C(C#N)=C(C)N(C)C(C)=C3C#N)cc12 [BAY-3827]
inactive: residual activity [1] 94% | residual activity [2] 55% | residual activity [3] 81% | residual activity [4] 100% | residual activity [5] 55% | residual activity [6] 100% | residual activity [7] 100% | residual activity [8] 100% | residual activity [9] 100% | residual activity [10] 88% | residual activity [11] 100% | residual activity [12] 100% | inhibition [13] 14.8%

CC1=C(C#N)C(c2ccc3c(c2)c(NC(=O)c2ccccc2C)nn3C)C(C#N)=C(C)N1 [BAY-974]
inactive: residual activity [1] 80% | residual activity [2] 83% | residual activity [3] 89% | residual activity [4] 66% | residual activity [5] 100% | residual activity [6] 96% | residual activity [7] 84% | residual activity [8] 100% | residual activity [9] 72% | residual activity [10] 76% | residual activity [11] 73% | residual activity [12] 95% | inhibition [13] 8.41%
